Holding throughout (assay type): cell-based
Test [1] has as its target T1, Pannexin1 (Panx1) (Homo sapiens, UniProt Q96RD7). Nature of the test: whole-cell patch clamp of Panx1-transfected HEK293 cells, dose response. (In general: The patch-clamp technique gives a direct electrical read-out from membranes.)
Test [2] addresses T1, Pannexin1 (Panx1). Nature of the test: whole-cell patch clamp in transfected HEK293 cells.
Test [3] has as its target T1, Pannexin1 (Panx1). Nature of the test: whole-cell patch clamp in transfected HEK293 cells. This is another data set of the same source.

T1 sequence (Q96RD7 whole entry): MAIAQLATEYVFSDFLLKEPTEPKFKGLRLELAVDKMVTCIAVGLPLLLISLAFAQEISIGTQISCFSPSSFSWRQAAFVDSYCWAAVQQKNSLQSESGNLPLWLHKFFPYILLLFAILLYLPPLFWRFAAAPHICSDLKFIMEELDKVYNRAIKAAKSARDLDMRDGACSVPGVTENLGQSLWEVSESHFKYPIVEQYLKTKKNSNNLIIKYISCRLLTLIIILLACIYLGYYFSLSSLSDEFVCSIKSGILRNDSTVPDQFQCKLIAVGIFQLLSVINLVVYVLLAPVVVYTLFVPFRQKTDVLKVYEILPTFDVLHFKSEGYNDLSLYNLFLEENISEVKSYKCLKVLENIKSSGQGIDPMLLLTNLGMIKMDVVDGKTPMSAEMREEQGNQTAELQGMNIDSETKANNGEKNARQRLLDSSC

Usually IC50 stands for the concentration that inhibits the measured activity by half. `CC1(C)[C@@H](OC(=O)CCC(=O)O)CC[C@]2(C)[C@H]3C(=O)C=C4[C@@H]5C[C@@](C)(C(=O)O)CC[C@]5(C)CC[C@@]4(C)[C@]3(C)CC[C@@H]12` [carbenoxolone] displayed an IC50 on Pannexin1 (Panx1) [1] of approximately 2 µM.
Turning to `COc1ccc(Cl)cc1C(=O)NCCc1ccc(S(=O)(=O)NC(=O)NC2CCCCC2)cc1` [glybenclamide], at Pannexin1 (Panx1) [2], the “whole-cell patch clamp in transfected HEK293 cells (150 μM)” value is on record as “W74 is essential not only for CBX, but also for the other four Panx1 inhibitors to function”.
For the compound `CCCN(CCC)S(=O)(=O)c1ccc(C(=O)O)cc1` [probenecid], the “whole-cell patch clamp in transfected HEK293 cells (3 mM and 10 mM)” value on Pannexin1 (Panx1) [3] is on record as “suggesting that binding of probenecid trapped Panx1 in a nonresting closed conformation”.

Source of the values: article PMC4727946 (The Journal of General Physiology, 2016).
